The record followed here is ChEMBL document CHEMBL1255246, “Systemic pharmacokinetics of rifaximin in volunteers with shigellosis” (Antimicrob Agents Chemother, 2008).

Holding throughout (assay type): ADME, organism-based
A short description of data set [1]: AUC (0 to last) in Shigella flexneri challenged human at […], po administered every 8 hrs for three days measured after third dose. The conditions noted are these: plasma. On the set-up: route oral, time 0 - last.
Data set [2] can be described thus: Drug level in healthy human urine at 400 mg single dose. To be noted: read-out: Drug uptake.
Data set [3] is described as follows: Cmax in Shigella flexneri challenged human at […], po administered every 8 hrs for three days measured after last dose. Details: route oral. To be noted: in vivo.
Data set [4] can be described thus: Drug level in healthy human feces at 400 mg single dose. The conditions noted are these: faeces, read-out: Drug uptake.
Data set [5] is described as follows: Tmax in Shigella flexneri challenged human at […], po administered every 8 hrs for three days measured after last dose. On the set-up: route oral. The conditions noted are these: in vivo.
Data set [6] in a line: Oral bioavailability in human at 200 mg three times a day for 3 days. To be noted: in vivo.
Data set [7] can be described thus: AUC (0 to last) in Shigella flexneri challenged human at […], po administered every 8 hrs for three days measured after last dose. On the set-up: time 0 - last, route oral. To be noted: plasma.
Data set [8] in a line: Cmax in Shigella flexneri challenged human at […], po administered every 8 hrs for three days measured after third dose. Details: route oral. To be noted: in vivo.
Data set [9] in a line: Tmax in Shigella flexneri challenged human at […], po administered every 8 hrs for three days measured after third dose. On the set-up: route oral. The conditions noted are these: in vivo.

With `CO[C@H]1/C=C/O[C@@]2(C)Oc3c(C)c(O)c4c(O)c(c5c(nc6cc(C)ccn65)c4c3C2=O)NC(=O)/C(C)=C\C=C\[C@H](C)[C@H](O)[C@@H](C)[C@@H](O)[C@@H](C)[C@H](OC(C)=O)[C@@H]1C` [RIFAXIMIN], the results for the AUC(0-t) at 8 h in data set [1] and in data set [7] were 6.95 ng·h/mL and 7.83 ng·h/mL, respectively. The values for the dose excreted in [2] and in data set [4] were 0.32% and 97%, respectively. Also, the highest concentration (Cmax) (commonly the peak of the concentration-time curve) in data set [3] came to 1.23 ng/mL; in data set [8], 1.63 ng/mL. Moreover, the Tmax (usually the time from dosing to the highest level) in data set [5] was 2.11 h; in data set [9], 2.77 h. Besides, in data set [6], the bioavailability (in general, the share of a dose that reaches the circulation, judged against a reference dose that is usually intravenous) is under 0.4%.
